Test results reported in US4518712A, “Piperazine derivative and analgesic composition containing the same” (priority 1980, dated 1985).
Structures can show the parent of a compound that is named as a salt.

How the values were obtained:
dd strain male mice [1] = assay: Analgesic activity test: modified Haffner method; assay type: in vivo; settings: 30 min before 2 mg/kg morphine hydrochloride s.c., tail clamp, 95% confidence limits in parentheses; for ED50: Mus musculus
Method: (§1) The results of analgesic activity test and acute toxicity test performed on the compounds of this invention and aminopyrin as control are as described below.
Groups of each 10 dd strain male mice (about 19 g in body weight) were used for the test. Thirty minutes after the oral administration of the drug under test, 2 mg/kg of morphine hydrochloride was subcutaneously injected. After 15 minutes, the basal part of the mouse tail was clamped with Kocher's forcepts four times at each time interval of 15 minutes to observe the pain reaction of each mouse. The percentage effectiveness was calculated by the formula [formula] From the effectiveness data, the median effective dose (ED50) and its 95% confidence limits were calculated by the method of Litchfield-Wilcoxon.

dd strain male mice [2] = assay: Acute toxicity test; assay type: in vivo; settings: 72 hours
Excerpt: as §1
(§2) Groups of each 4-6 dd strain male mice (about 19 g in body weight) were used for the test. […] When the median lethal dose was not obtainable, the dose (mg/kg) and the ratio (number of dead animals)/(number of test animals) were shown in Table 2.

dd strain male mice [3] = assay: Analgesic activity test: acetic acid-induced stretching method; assay type: in vivo; settings: Mus musculus, oral, 30 min before 0.6% acetic acid i.p., 95% confidence limits in parentheses on the next line
Method: as §1
Groups of each 10 dd strain male mice (about 18 g in body weight) were used for the test. Each mouse was orally administered with the drug being tested. Thirty minutes after the administration, 0.1 ml/10 g of a 0.6% acetic acid solution was intraperitoneously injected. […] The percentage effectiveness was determined by the formula [formula] From the effectiveness data, the median effective dose (ED50) and its 95% confidence limits were calculated by the method of Litchfield-Wilcoxon.

Acute toxicity test = assay type: in vivo, mice; settings: mouse, in vivo; oral, 72 hours of observation; dd strain male mice; 95% confidence limits in parentheses on the next line
Excerpt: as §1, §2

Row | SMILES | ED50 (dd strain male mice [1]; po) [mg/kg] | Acute toxicity, (number of dead animals)/(number of test animals) (dd strain male mice [2]; 250 mg/kg oral) | Acute toxicity, (number of dead animals)/(number of test animals) (dd strain male mice [2]; 500 mg/kg oral) | Acute toxicity, (number of dead animals)/(number of test animals) (dd strain male mice [2]; 1000 mg/kg oral) | ED50 (dd strain male mice [3]) [mg/kg] | Acute toxicity, (number of dead animals)/(number of test animals) (dd strain male mice [2]; 100 mg/kg (so in the source) oral) | Analgesic activity, ED50, Haffner method (dd strain male mice [1]; oral) [mg/kg] | LD50 at 72 h (Acute toxicity test) [mg/kg] | ED50 (dd strain male mice [1]; oral) [mg/kg]
1 | FC(F)(F)c1cccc(N2CCN(CC3CC3)CC2)c1 [Compound 7] | 5.5 | 0/6 | 2/6 | 6/6 | – | – | – | – | –
2 | Clc1ccc(N2CCN(CC3CC3)CC2)cc1 [Compound 4] | 6.3 | 0/6 | 5/6 | 6/6 | 17.9 | – | – | – | –
3 | Fc1ccccc1N1CCN(CC2CC2)CC1 [Compound 1] | 11 | 2/6 | 3/6 | – | 12.6 | 6/6 | – | – | –
4 | Cl.Cl.Fc1ccc(N2CCN(CC3CC3)CC2)cc1 [Compound 2, 1-(cyclopropylmethyl)-4-(4-fluorophenyl)piperazine dihydrochloride] | 13.2 | 1/6 | 5/6 | 6/6 | 9.4 | – | – | – | –
5 | FC(F)(F)c1cc(N2CCN(CC3CC3)CC2)ccc1Cl [Compound 11] | 5.8 | 0/6 | 5/6 | 6/6 | 20.2 | – | – | – | –
6 | Clc1cccc(N2CCN(CC3CC3)CC2)c1 [Compound 3] | 13.8 | 0/6 | 2/6 | 6/6 | – | – | – | – | –
7 | FC(F)(F)c1cccc(N2CCN(CC3CC3)CC2)c1 [Compound 9] | – | 0/6 | 3/6 | 6/6 | – | – | 4.9 | – | –
8 | Cc1c(N(C)C)c(=O)n(-c2ccccc2)n1C [Aminopyrin, aminopyrin, reference compound] | 65 | – | – | – | 63 | – | – | 750 | –
9 | CC(C)N1CCN(c2cccc(C(F)(F)F)c2)CC1 [Compound 12, 1-(3-trifluoromethyl)-4-isopropylpiperazine dihydrochloride] | 4.9 | 0/6 | 6/6 | 6/6 | 4.2 | – | – | – | –
10 | FC(F)(F)c1cccc(N2CCN(CC3CC3)CC2)c1.O=C(O)CC(O)(CC(=O)O)C(=O)O [Compound 10, 1-(Cyclopropylmethyl)-4-(3-trifluoromethylphenyl)piperazine citrate] | – | 0/6 | 2/6 | 6/6 | 8.7 | – | – | – | 2.5
11 | Cl.Cl.FC(F)(F)c1cccc(N2CCN(CC3CC3)CC2)c1 [Compound 6, 1-(cyclopropylmethyl)-4-(3-trifluoromethylphenyl)piperazine dihydrochloride] | 3.7 | 0/6 | 4/6 | 6/6 | 2.8 | – | – | – | –
12 | Clc1ccc(N2CCN(CC3CC3)CC2)cc1Cl [Compound 5] | 7.2 | 0/6 | 2/6 | 6/6 | 17.2 | – | – | – | –
13 | C=CCN1CCN(c2cccc(C(F)(F)F)c2)CC1.Cl.Cl [Compound 14, 1-Allyl-4-(3-trifluoromethylphenyl)piperazine dihydrochloride] | 7 | 0/6 | 4/6 | 6/6 | 13.6 | – | – | – | –
